Laboratory results reported in patent US20120052057A9, “METHOD FOR SELECTING RESPONDERS TO BLOCKADE OF INTEGRIN RECEPTORS” (priority 2007, published 2012).
Entries after “also recorded” stand apart in the source; their conditions may differ.

Tests used:
α2β1 integrin receptors = target: T1, α2β1 integrin receptors (Homo sapiens, UniProt P05556+P17301); test: PFA-100 platelet function analysis, whole blood closure time; format: cell-based; conditions: Collagen/ADP cartridges, vs untreated control
T1 construct: endogenous in cells; host or cells: platelets in anticoagulated whole blood of healthy donors
T1 sequence (P17301 30-1181): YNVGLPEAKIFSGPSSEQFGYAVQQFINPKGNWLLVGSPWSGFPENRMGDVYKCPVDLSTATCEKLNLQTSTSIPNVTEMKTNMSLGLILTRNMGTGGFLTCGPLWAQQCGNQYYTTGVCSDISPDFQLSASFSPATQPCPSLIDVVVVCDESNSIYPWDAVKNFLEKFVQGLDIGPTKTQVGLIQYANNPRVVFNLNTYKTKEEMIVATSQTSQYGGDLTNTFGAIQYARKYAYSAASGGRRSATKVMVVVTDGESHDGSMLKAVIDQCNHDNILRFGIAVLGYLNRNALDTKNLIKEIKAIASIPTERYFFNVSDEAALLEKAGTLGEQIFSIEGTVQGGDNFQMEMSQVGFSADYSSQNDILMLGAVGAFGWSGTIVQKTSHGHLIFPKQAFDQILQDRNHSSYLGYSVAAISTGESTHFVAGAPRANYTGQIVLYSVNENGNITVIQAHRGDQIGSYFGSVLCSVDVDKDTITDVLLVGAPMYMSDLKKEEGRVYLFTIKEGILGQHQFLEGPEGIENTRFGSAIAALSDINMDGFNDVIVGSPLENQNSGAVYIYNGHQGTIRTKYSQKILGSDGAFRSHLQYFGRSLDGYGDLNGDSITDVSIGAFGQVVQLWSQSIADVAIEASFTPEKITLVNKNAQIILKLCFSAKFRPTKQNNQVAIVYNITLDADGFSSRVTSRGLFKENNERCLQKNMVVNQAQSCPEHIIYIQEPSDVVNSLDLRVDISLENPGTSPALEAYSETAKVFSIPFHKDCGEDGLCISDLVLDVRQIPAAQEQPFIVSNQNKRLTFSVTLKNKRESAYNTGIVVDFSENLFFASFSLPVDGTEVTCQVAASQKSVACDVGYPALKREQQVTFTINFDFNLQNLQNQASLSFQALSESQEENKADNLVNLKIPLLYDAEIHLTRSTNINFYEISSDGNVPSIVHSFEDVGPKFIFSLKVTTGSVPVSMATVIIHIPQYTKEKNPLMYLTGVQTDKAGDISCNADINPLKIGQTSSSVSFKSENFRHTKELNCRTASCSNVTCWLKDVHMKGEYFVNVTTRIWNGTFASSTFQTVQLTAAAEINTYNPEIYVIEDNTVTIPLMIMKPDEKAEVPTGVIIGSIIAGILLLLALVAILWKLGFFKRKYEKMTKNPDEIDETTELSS
T1 sequence (P05556 21-798): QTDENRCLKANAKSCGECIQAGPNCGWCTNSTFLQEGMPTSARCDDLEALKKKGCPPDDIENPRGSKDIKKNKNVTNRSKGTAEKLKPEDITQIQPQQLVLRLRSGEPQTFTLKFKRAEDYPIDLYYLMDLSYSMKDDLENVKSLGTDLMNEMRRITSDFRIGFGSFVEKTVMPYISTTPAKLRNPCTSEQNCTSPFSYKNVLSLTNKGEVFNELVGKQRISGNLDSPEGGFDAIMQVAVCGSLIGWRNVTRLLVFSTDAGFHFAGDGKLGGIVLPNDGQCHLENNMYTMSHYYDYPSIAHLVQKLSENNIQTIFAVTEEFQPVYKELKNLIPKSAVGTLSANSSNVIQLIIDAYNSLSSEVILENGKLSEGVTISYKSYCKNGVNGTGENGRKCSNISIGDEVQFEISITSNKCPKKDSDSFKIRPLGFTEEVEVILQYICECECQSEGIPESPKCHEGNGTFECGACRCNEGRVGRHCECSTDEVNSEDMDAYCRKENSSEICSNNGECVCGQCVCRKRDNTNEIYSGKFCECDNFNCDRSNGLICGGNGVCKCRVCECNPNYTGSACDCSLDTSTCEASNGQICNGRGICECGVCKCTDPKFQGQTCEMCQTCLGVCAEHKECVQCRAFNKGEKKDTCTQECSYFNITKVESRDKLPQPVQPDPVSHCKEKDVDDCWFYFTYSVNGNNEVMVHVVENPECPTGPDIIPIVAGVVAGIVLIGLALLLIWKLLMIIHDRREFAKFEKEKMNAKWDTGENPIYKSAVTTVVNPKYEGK
Method: The responsiveness of the genotyped healthy volunteers to a treatment involving the blockade of α2β1 integrin receptors was assessed by measuring the effect of synthetic α2β1 integrin inhibitors, such as sulphonamide derivatives disclosed e.g. in WO 2005/090298, on whole blood closure time in PFA-100 platelet function analysis. The PFA-100 analyzer is a high shear-inducing device that simulates primary haemostasis after injury of a small vessel. The system comprises a test-cartridge containing a biologically active membrane coated with collagen plus adenosine diphosphate (ADP). An anticoaculated whole blood sample is run through a capillary under a constant vacuum. […] Synthetic α2β1 integrin inhibitor was added to the whole blood sample obtained from each healthy volunteer, and the closure time was measured with PFA-100. […]
The effect of a synthetic α2β1 integrin inhibitor, sodium salt of 4-({[3-(4-fluorophenyl)phenyl]sulfonyl}amino)phenyl phenyl ketone (BTT-3016), on whole blood closure time in PFA-100 analysis was determined for donors representing each genotypic population. […] Samples were incubated at room temperature for 10 min., dispensed into PFA Collagen/ADP cartridges, and closure time was determined with PFA-100 (Dade Behring).

[1] = target: T2, α2 integrin over expressing CHO cell clone (CHO-α2) (Homo sapiens, UniProt P17301); test: Binding of C^14-labeled integrin inhibitor to CHO-α2 cells; conditions: for binding of labeled compound in the presence of EDTA: CHO-α2 cells, 20 mM EDTA, 10 μM compound
T2 construct: expressed in transfected cells; host or cells: CHO cell clone over-expressing α2 integrin (CHO-α2)
T2 sequence (P17301 30-1181): as the sequence (P17301 30-1181) above
T2 sequence (P05556 21-798 partner): as the sequence (P05556 21-798) above
Method: (§1) The binding of C^14-labeled integrin inhibitory compound, hydrochloride salt of [4-(dimethylamino)phenyl]{[3-(4-fluorophenyl)phenyl]-sulfonyl}methylamine, was studied with CHO-wt cells and α2 integrin over expressing CHO cell clone (CHO-α2). CHO-wt cells have no collagen receptor integrins on their cell surface. Cells were fixed in 2% formaldehyde in PBS. After that cells were washed and suspended in reaction buffer (50 mM Tris-HCl pH 7.4, 5 mM MgCl2). To all samples 10 μM C^14-labeled inhibitory compound was added and the cells were incubated in the presence or absence of 20 mM EDTA for 1 h in +4° C. 20000 cells from each sample were loaded to GF/B glass microfibre filter (Whatman) and the samples were washed with 10 mL of the reaction buffer. The membranes were put to scintillation buffer (Optiphase HiSafe3, Perkin Elmer) and the activity was measured with the scintillation counter (Wallac 1415).

CHO-wt cells = test: Binding of C^14-labeled integrin inhibitor to CHO-wt cells; conditions: 20 mM EDTA, 10 μM compound, listed as C^u-labeled integrin inhibitor
Method: as §1

Compound | effect on whole blood closure time (α2β1 integrin receptors; donors with high α2β1 expression (MEF≧35), genotype TT807 or CT807) | effect on whole blood closure time (α2β1 integrin receptors; donors with low integrin expression, genotype CC807) | binding of labeled compound to cells ([1]; 10 μM C^14-labeled compound, 1 h, +4° C, CHO-α2 compared with CHO-wt) | binding of labeled compound in the presence of EDTA [1] | binding of labeled compound in the presence of EDTA ([1]; listed as C^u-labeled integrin inhibitor) | binding of labeled compound in the presence of EDTA (CHO-wt cells)
O=C(c1ccccc1)c1ccc(NS(=O)(=O)c2cccc(-c3ccc(F)cc3)c2)cc1 [BTT-3016, 4-({[3-(4-fluorophenyl)phenyl]sulfonyl}amino)phenyl phenyl ketone] | increases the blood closure time; also recorded: increase the closure time statistically significantly | non-responsive; also recorded: not efficacious |  |  |  | 
CN(C)c1ccc(NCS(=O)(=O)c2cccc(-c3ccc(F)cc3)c2)cc1 [[4-(dimethylamino)phenyl]{[3-(4-fluorophenyl)phenyl]-sulfonyl}methylamine] |  |  | bound more efficiently to CHO-α2 cells than to CHO-wt cells | could be inhibited | EDTA inhibits the binding | not to CHO-wild type (wt) cells
